How the values were obtained:
CARP gene [1] = test: CARP gene expression in primary neonatal rat cardiomyocytes, TaqMan quantification; assay type: cell-based; settings: serum-removed medium, added to 10 nM, 100 nM or 1000 nM, at maximum
CARP gene [2] = test: CARP gene expression in H9c2 cells, TaqMan PCR; assay type: cell-based, rat; settings: serum-free DMEM, 10 nM or 100 nM, 4 hours and 8 hours, at maximum
Method: H9c2 cell is a cell line derived from rat cardiomyocytes and was purchased from ATCC. The cells were incubated in DMEM medium supplemented with 10% calf serum. After recovery of cells using trypsin, the cells were inoculated on a 12-well plate in 100000 cells/well, followed by incubation in a 10% calf serum-containing DMEM medium for 12 hours. Thereafter, the medium was exchanged with a fresh serum-free DMEM medium, to which norepinephrine was supplemented in 10 nM or 100 nM, and the CARP gene expression level was quantitatively determined by TaqMan PCR with passage of 4 hours and 8 hours. Also, the copy number of […] gene (G3PDH) was quantitatively determined in a similar manner, and the copy number of CARP gene calculated was corrected by G3PDH. […] According to this system, the CARP gene expression can be quantitatively determined in response to various hypertrophic stimuli or in the apoptosis induction stage, and thus the system can be used for screening a CARP gene expression regulator. Moreover, by performing reporter gene assay using a promoter of the CARP gene, a low variation rate can be changed to a high variation rate to achieve high sensitization, thus enabling to high throughput screening.

Compound | increase of expression of the CARP gene (CARP gene [1]) | increase of expression level of CARP gene (corrected by G3PDH) (CARP gene [2])
NC[C@H](O)c1ccc(O)c(O)c1 [norepinephrine] | about 3 times | ~2 fold
CC[C@H](C)[C@H](NC(=O)[C@H](CC(=O)O)NC(=O)[C@H](CC(C)C)NC(=O)[C@H](Cc1c[nH]cn1)NC(=O)[C@@H]1CSSC[C@H](N)C(=O)N[C@@H](CO)C(=O)N[C@H]2CSSC[C@H](NC(=O)[C@H](CCC(=O)O)NC(=O)[C@H](CCCCN)NC(=O)[C@H](CC(=O)O)NC(=O)[C@H](CCSC)NC(=O)[C@H](CC(C)C)NC(=O)[C@H](CO)NC(=O)[C@H](CO)NC2=O)C(=O)N[C@@H](C(C)C)C(=O)N[C@@H](Cc2ccc(O)cc2)C(=O)N[C@@H](Cc2ccccc2)C(=O)N1)C(=O)N[C@H](C(=O)N[C@@H](Cc1c[nH]c2ccccc12)C(=O)O)[C@@H](C)CC [endothelin] | about 3 times | 
